Source: patent publication US9169267B2, “Quaternary ammonium salts, method for preparation and applications thereof” (Uniwersytet Medyczny IM. Karola Marcinkowskiego, priority 2012, dated 2015)

Tests used:
Format in all cases: cell-based
[1] = test system: Staphylocoocus aureus ATCC 6538; experiment: Antimicrobial activity MIC/MBC test, Staphylocoocus aureus ATCC 6538; conditions: read-out: MBC (minimum bactericidal concentration)
Experimental: (§1) The four reference strains were indications of the minimum inhibitory concentration (MIC) and minimum bactericidal concentration (MBC) tests conducted for two newly synthesized compounds of the new quaternary ammonium salts derivatives: 4-[2-(4-bromophenyl)-2-oxoethyl]tetrahydro[1,3]oxazolo[2,3-b][1,3]oxazol-4-ium bromide and 4-[2-(biphenyl-4-yl)-2-oxoethyl]tetrahydro[1,3]oxazolo[2,3-b][1,3]oxazol-4-ium bromide. The study was carried out on strains: Staphylocoocus aureus ATCC 6538, Escherichia coli ATCC 25922, Pseudomonas aeruginosa ATCC 6749, Candida albicans ATCC 10231,

[2] = test system: Pseudomonas aeruginosa ATCC 6749; experiment: Antimicrobial activity MIC/MBC test, Pseudomonas aeruginosa ATCC 6749; conditions: for MBC: ATCC6749, read-out: MBC (minimum bactericidal concentration); for MIC: ATCC6749, read-out: MIC (minimum inhibitory concentration)
Experimental: as §1

[3] = test system: Escherichia coli ATCC 25922; experiment: Antimicrobial activity MIC/MBC test, Escherichia coli ATCC 25922; conditions: ATCC25922, read-out: MBC (minimum bactericidal concentration)
Experimental: as §1

[4] = test system: Candida albicans ATCC 10231; experiment: Antimicrobial activity MIC/MBC test, Candida albicans ATCC 10231; conditions: ATCC10231, read-out: MBC (minimum bactericidal concentration)
Experimental: as §1

Row | SMILES | MBC [1] | MBC [2] | MIC [2] | MBC [3] | MBC [4]
1 | O=C(C[N+]12CCOC1OCC2)c1ccc(Br)cc1.[Br-] (stereo not shown) [4-[2-(4-bromophenyl)-2-oxoethyl]tetrahydro[1,3]oxazolo[2,3-b][1,3]oxazol-4-ium bromide] | 1.73 mg/mL | 27.8 mg/mL | 27.8 mg/mL | 6.94 mg/mL | 27.8 mg/mL
2 | O=C(C[N+]12CCOC1OCC2)c1ccc(-c2ccccc2)cc1.[Br-] (stereo not shown) [4-[2-(biphenyl-4-yl)-2-oxoethyl]tetrahydro[1,3]oxazolo[2,3-b][1,3]oxazol-4-ium bromide] | 0.43 mg/mL | 55.5 mg/mL | 13.9 mg/mL | 3.47 mg/mL | 6.94 mg/mL
